Results taken from ChEMBL document CHEMBL3991601, “The target landscape of clinical kinase drugs” (Science, 2017).
Calls of active or inactive are those of the source. For most assays here, no stated cut-off is given here; in the data, actives have a measured Kd and inactives only a lower limit.

Legend:
[1] = target: Protein kinase C beta type (Homo sapiens, UniProt P05771)
[2] = target: Putative heat shock protein HSP 90-beta 2 (Homo sapiens, UniProt Q58FF8)
[3] = target: T1, cGMP-dependent protein kinase 1 (Homo sapiens, UniProt Q13976)
T1 sequence (Q13976 whole entry): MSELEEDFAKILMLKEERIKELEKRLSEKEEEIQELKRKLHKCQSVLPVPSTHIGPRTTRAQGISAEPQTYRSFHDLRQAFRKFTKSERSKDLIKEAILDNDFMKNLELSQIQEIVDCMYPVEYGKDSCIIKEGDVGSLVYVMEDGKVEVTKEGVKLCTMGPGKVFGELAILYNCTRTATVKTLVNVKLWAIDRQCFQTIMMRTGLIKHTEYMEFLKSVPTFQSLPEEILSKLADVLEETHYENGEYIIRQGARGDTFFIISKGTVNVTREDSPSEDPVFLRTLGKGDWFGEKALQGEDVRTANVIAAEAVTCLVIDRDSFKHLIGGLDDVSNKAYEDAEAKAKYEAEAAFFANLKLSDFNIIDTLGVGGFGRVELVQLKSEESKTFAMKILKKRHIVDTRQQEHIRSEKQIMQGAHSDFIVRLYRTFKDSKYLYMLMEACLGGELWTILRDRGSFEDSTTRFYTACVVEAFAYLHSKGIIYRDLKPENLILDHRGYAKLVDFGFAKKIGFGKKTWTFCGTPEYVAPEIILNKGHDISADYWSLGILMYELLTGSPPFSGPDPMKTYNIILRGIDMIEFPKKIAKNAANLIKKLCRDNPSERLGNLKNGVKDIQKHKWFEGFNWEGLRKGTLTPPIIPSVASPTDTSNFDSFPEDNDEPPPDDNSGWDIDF

[4] = target: Tyrosine-protein kinase HCK (Homo sapiens, UniProt P08631)
[5] = target: Rho-associated protein kinase 2 (Homo sapiens, UniProt O75116)
[6] = target: T2, Bone morphogenetic protein receptor type-2 (Homo sapiens, UniProt Q13873)
T2 sequence (Q13873 whole entry): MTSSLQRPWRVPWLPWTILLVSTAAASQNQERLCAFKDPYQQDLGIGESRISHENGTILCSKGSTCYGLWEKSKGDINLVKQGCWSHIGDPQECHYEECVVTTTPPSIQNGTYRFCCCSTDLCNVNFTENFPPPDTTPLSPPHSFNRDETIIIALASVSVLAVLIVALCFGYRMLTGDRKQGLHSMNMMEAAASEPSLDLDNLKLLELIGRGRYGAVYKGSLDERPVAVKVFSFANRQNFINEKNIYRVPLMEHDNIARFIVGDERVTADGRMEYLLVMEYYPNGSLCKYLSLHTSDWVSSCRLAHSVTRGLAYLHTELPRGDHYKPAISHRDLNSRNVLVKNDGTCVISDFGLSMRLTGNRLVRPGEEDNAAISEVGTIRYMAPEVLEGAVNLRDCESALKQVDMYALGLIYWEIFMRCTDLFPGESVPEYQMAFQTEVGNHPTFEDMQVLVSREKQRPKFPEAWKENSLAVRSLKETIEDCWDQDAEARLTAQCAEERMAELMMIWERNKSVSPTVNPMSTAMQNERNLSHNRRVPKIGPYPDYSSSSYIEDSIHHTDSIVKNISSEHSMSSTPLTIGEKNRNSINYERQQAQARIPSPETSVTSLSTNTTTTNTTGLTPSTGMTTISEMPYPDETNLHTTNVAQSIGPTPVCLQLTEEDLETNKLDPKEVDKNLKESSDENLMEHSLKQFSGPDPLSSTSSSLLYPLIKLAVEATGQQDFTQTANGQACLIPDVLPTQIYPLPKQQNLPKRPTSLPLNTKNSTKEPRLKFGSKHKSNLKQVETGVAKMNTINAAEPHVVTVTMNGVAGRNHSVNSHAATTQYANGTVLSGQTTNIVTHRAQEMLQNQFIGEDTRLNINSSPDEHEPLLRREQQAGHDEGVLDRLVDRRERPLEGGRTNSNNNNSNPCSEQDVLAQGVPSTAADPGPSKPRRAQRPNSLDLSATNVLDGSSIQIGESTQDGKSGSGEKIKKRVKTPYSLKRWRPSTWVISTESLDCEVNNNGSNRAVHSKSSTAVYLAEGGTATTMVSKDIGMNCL

Insulin receptor = Insulin receptor (Homo sapiens, UniProt P06213)
[7] = target: T3, Serine/threonine-protein kinase Nek9 (Homo sapiens, UniProt Q8TD19)
T3 sequence (Q8TD19 whole entry): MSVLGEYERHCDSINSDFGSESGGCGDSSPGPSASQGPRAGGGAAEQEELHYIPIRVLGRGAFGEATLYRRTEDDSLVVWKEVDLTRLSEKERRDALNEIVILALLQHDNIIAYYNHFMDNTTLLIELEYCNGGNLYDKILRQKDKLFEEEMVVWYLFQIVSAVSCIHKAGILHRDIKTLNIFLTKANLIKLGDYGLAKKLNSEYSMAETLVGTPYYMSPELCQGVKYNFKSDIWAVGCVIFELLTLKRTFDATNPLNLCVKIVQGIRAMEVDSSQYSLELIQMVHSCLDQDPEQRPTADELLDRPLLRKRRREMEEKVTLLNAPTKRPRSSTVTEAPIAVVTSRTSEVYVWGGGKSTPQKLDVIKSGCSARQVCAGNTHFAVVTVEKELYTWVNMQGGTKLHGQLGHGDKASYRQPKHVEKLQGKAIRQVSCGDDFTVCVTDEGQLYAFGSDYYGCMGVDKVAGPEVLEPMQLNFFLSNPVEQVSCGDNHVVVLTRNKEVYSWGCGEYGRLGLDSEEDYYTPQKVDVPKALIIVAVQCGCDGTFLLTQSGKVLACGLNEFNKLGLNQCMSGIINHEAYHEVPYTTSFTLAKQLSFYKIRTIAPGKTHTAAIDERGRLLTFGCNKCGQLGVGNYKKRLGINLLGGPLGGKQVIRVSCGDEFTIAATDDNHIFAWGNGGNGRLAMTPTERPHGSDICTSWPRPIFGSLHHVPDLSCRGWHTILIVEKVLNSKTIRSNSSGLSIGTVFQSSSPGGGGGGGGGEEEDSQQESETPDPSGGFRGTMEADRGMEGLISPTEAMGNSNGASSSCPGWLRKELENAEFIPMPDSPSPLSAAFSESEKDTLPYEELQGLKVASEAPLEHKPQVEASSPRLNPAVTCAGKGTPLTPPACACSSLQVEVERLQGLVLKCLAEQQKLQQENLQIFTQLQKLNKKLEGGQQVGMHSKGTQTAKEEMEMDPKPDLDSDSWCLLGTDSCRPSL

[8] = target: cAMP-dependent protein kinase type II-alpha regulatory subunit (Homo sapiens, UniProt P13861)
Chain of cAMP-dependent protein kinase type II-alpha regulatory subunit (P13861 whole entry): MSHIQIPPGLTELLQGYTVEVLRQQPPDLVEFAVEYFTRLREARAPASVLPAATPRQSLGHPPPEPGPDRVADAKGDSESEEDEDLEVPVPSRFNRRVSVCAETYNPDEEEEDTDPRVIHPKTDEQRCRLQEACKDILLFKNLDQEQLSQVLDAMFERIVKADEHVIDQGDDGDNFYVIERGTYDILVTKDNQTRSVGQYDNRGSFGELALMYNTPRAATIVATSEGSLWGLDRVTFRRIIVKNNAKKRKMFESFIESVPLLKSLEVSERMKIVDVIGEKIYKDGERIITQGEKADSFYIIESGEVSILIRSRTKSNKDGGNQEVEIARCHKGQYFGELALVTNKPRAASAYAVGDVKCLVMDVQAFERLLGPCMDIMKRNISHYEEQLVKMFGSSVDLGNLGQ

Chain of Protein kinase C beta type (P05771 whole entry): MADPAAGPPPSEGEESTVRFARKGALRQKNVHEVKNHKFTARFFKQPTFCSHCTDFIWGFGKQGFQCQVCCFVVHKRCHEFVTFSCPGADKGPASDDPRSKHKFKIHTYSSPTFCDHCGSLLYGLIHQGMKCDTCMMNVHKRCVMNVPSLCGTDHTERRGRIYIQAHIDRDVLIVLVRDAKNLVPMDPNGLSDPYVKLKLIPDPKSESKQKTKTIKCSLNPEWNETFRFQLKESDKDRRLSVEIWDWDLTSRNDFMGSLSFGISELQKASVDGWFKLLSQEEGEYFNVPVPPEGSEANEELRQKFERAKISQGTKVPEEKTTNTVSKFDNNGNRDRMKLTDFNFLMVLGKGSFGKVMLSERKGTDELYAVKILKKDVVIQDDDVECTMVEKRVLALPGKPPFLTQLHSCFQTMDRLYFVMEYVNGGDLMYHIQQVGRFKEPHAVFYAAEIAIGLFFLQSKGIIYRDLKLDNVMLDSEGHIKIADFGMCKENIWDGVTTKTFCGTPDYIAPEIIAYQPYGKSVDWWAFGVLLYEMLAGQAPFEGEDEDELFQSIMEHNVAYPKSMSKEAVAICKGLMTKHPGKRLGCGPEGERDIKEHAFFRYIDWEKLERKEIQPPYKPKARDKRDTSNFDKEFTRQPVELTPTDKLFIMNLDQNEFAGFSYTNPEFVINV
Chain of Rho-associated protein kinase 2 (O75116 whole entry): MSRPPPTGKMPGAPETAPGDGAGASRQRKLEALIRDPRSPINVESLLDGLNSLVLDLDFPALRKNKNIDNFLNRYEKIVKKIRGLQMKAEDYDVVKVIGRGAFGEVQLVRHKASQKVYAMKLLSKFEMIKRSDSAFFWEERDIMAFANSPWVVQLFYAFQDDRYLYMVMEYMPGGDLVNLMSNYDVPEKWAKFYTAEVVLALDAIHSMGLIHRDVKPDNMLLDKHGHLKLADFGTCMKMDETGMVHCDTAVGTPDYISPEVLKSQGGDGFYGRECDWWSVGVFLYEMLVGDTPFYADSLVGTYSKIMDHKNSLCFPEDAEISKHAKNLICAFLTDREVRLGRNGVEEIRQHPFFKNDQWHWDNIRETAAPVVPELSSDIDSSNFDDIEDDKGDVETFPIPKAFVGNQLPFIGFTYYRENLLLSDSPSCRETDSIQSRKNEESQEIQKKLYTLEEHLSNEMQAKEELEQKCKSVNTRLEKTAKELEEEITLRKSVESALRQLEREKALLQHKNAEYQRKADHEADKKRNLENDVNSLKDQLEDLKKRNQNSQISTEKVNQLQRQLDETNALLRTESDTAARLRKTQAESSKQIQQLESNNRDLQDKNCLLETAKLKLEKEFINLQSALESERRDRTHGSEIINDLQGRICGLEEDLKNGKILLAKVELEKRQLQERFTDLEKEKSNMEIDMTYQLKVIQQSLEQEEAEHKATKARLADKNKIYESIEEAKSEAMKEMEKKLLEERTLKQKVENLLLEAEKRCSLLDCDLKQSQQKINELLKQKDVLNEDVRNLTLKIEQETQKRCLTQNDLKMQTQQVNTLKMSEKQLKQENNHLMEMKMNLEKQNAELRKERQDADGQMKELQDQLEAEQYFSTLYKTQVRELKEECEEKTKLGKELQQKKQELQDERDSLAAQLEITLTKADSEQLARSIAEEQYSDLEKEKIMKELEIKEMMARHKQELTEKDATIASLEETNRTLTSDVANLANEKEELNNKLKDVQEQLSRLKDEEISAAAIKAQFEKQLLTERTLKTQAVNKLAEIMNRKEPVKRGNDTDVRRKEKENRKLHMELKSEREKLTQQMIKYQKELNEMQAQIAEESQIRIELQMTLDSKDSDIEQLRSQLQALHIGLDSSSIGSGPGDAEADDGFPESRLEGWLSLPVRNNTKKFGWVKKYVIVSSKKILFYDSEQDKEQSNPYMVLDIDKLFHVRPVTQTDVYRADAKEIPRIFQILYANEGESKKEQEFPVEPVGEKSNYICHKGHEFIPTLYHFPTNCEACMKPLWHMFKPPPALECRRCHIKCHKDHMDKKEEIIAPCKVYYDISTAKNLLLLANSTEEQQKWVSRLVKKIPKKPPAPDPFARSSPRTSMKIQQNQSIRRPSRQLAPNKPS
Chain of Tyrosine-protein kinase HCK (P08631 whole entry): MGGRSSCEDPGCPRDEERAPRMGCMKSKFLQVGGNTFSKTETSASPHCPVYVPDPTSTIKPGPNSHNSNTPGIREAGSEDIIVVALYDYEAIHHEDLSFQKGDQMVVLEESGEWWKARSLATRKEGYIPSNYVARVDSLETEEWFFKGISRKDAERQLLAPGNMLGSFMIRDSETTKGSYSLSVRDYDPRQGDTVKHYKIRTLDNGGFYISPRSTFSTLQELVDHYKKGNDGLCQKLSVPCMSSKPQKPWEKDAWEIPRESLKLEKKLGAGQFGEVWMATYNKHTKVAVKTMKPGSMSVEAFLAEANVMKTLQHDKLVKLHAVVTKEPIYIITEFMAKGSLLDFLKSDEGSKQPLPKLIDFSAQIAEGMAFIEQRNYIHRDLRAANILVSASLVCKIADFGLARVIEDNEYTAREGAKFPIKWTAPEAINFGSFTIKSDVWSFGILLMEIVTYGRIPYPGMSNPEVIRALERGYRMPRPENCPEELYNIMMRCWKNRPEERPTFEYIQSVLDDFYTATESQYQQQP
Chain of Putative heat shock protein HSP 90-beta 2 (Q58FF8 whole entry): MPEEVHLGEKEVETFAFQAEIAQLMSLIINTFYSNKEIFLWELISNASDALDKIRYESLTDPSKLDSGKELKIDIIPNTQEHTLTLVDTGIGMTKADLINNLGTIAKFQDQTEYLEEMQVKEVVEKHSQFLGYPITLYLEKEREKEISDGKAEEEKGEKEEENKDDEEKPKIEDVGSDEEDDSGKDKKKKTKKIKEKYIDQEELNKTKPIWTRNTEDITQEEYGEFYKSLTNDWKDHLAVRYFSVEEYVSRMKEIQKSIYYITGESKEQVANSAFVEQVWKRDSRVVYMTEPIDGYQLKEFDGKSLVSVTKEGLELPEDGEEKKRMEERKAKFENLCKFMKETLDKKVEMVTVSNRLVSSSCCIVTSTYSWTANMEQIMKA
Chain of Insulin receptor (P06213 28-758 limits assumed): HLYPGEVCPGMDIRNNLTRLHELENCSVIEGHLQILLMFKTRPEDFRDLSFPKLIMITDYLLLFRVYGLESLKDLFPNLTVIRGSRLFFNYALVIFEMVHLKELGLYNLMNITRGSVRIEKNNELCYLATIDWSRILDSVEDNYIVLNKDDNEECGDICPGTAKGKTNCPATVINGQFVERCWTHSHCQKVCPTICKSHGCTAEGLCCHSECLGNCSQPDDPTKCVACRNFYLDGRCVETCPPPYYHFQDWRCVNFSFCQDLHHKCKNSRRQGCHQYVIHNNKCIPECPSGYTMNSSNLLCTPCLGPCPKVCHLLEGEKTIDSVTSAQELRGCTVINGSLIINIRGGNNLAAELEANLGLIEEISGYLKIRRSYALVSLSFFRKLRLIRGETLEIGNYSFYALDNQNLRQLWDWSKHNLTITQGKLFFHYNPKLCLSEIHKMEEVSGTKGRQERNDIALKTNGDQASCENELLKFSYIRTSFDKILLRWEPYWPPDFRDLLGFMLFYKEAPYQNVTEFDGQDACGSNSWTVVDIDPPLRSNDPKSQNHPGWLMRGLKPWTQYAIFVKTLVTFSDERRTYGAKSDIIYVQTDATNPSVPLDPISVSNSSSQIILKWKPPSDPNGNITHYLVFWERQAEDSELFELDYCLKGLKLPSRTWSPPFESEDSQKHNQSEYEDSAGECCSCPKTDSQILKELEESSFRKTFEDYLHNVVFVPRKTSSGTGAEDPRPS
Chain of Insulin receptor (P06213 763-1382 limits assumed): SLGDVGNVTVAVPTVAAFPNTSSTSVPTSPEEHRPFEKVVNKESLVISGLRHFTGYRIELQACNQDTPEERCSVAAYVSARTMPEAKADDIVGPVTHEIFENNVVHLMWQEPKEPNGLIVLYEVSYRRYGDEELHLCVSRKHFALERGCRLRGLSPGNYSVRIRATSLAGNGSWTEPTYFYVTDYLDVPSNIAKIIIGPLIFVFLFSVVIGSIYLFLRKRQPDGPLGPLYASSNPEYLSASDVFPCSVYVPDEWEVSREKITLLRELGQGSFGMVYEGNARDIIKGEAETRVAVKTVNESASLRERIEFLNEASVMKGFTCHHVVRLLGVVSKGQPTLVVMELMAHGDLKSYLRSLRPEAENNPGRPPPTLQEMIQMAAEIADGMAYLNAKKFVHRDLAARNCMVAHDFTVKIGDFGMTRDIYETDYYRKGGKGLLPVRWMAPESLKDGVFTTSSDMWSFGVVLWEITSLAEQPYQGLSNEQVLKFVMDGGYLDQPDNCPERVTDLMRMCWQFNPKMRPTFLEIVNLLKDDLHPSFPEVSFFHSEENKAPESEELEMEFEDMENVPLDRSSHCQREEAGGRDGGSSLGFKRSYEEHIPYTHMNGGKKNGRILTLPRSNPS

Structure (SMILES)	Kd [1]	Kd [2]	Kd [3]	Kd [4]	Kd [5]	Kd [6]	Kd (Insulin receptor)	Kd [7]	Kd [8]
CCc1cnn2c(NCc3ccc[n+]([O-])c3)cc(N3CCCC[C@H]3CCO)nc12 [DINACICLIB]	> 30 µM (inactive)	> 30 µM (inactive)	> 30 µM (inactive)	> 30 µM (inactive)	> 30 µM (inactive)	> 30 µM (inactive)	> 30 µM (inactive)	> 30 µM (inactive)	> 30 µM (inactive)
Cn1ncc(Cl)c1-c1cc(C(=O)N[C@H](CN)Cc2cccc(F)c2)sc1Cl [AFURESERTIB]	4.88 µM (active)	> 30 µM (inactive)	> 30 µM (inactive)	> 30 µM (inactive)	4.73 µM (active)	> 30 µM (inactive)	> 30 µM (inactive)	> 30 µM (inactive)	> 30 µM (inactive)
CC[C@H](Nc1ncnc2[nH]cnc12)c1nc2cccc(F)c2c(=O)n1-c1ccccc1 [IDELALISIB]	> 30 µM (inactive)	> 30 µM (inactive)	> 30 µM (inactive)	> 30 µM (inactive)	> 30 µM (inactive)	> 30 µM (inactive)	> 30 µM (inactive)	> 30 µM (inactive)	> 30 µM (inactive)
O=C(O)[C@]1(Cc2cccc(Nc3nccs3)n2)CC[C@@H](Oc2cccc(Cl)c2F)CC1 [MK-5108]	> 30 µM (inactive)	> 30 µM (inactive)	> 30 µM (inactive)	> 30 µM (inactive)	> 30 µM (inactive)	> 30 µM (inactive)	> 30 µM (inactive)	> 30 µM (inactive)	> 30 µM (inactive)
C[C@@H]1CN(Cc2ccc(F)cc2)[C@@H](C)CN1C(=O)c1cc2c(C(=O)C(=O)N(C)C)cn(C)c2cc1Cl [TALMAPIMOD]	> 30 µM (inactive)	> 30 µM (inactive)	> 30 µM (inactive)	> 30 µM (inactive)	> 30 µM (inactive)	> 30 µM (inactive)	> 30 µM (inactive)	> 30 µM (inactive)	> 30 µM (inactive)
O=C1NC(=O)/C(=C/c2ccc3nccc(-c4ccncc4)c3c2)S1 [GSK-1059615]	> 30 µM (inactive)	> 30 µM (inactive)	> 30 µM (inactive)	> 30 µM (inactive)	> 30 µM (inactive)	> 30 µM (inactive)	> 30 µM (inactive)	> 30 µM (inactive)	> 30 µM (inactive)
Cn1cc(-c2ccc3nnc(C(F)(F)c4ccc5ncccc5c4)n3n2)cn1 [JNJ-38877605]	> 30 µM (inactive)	> 30 µM (inactive)	> 30 µM (inactive)	> 30 µM (inactive)	> 30 µM (inactive)	> 30 µM (inactive)	> 30 µM (inactive)	> 30 µM (inactive)	> 30 µM (inactive)
CO[C@H]1C[C@@H]2CC[C@@H](C)[C@@](O)(O2)C(=O)C(=O)N2CCCC[C@H]2C(=O)O[C@H]([C@H](C)C[C@@H]2CC[C@@H](OCCO)[C@H](OC)C2)CC(=O)[C@H](C)/C=C(\C)[C@@H](O)[C@@H](OC)C(=O)[C@H](C)C[C@H](C)/C=C/C=C/C=C/1C [EVEROLIMUS]	> 30 µM (inactive)	> 30 µM (inactive)	> 30 µM (inactive)	> 30 µM (inactive)	> 30 µM (inactive)	> 30 µM (inactive)	> 30 µM (inactive)	> 30 µM (inactive)	> 30 µM (inactive)
CC(C)Nc1cc(-c2c[nH]c(C(=O)N[C@H](CO)c3cccc(Cl)c3)c2)c(Cl)cn1 [ULIXERTINIB]	> 30 µM (inactive)	> 30 µM (inactive)	> 30 µM (inactive)	> 30 µM (inactive)	> 30 µM (inactive)	> 30 µM (inactive)	> 30 µM (inactive)	> 30 µM (inactive)	> 30 µM (inactive)
COc1cc2nccc(Oc3ccc(NC(=O)NC4CC4)c(Cl)c3)c2cc1C(N)=O [LENVATINIB]	> 30 µM (inactive)	> 30 µM (inactive)	> 30 µM (inactive)	> 30 µM (inactive)	> 30 µM (inactive)	> 30 µM (inactive)	> 30 µM (inactive)	> 30 µM (inactive)	> 30 µM (inactive)
OCCn1cc(-c2cnc3nnn(Cc4ccc5ncccc5c4)c3n2)cn1 [PF-04217903]	> 30 µM (inactive)	> 30 µM (inactive)	> 30 µM (inactive)	> 30 µM (inactive)	> 30 µM (inactive)	> 30 µM (inactive)	> 30 µM (inactive)	> 30 µM (inactive)	> 30 µM (inactive)
CC(=O)Nc1cccc(-n2c(=O)n(C3CC3)c(=O)c3c(Nc4ccc(I)cc4F)n(C)c(=O)c(C)c32)c1 [TRAMETINIB]	> 30 µM (inactive)	> 30 µM (inactive)	> 30 µM (inactive)	> 30 µM (inactive)	> 30 µM (inactive)	> 30 µM (inactive)	> 30 µM (inactive)	> 30 µM (inactive)	> 30 µM (inactive)
COC(=O)N[C@@H](C)CNc1nccc(-c2cn(C(C)C)nc2-c2cc(Cl)cc(NS(C)(=O)=O)c2F)n1 [ENCORAFENIB]	> 30 µM (inactive)	> 30 µM (inactive)	> 30 µM (inactive)	> 30 µM (inactive)	> 30 µM (inactive)	> 30 µM (inactive)	> 30 µM (inactive)	> 30 µM (inactive)	> 30 µM (inactive)
COC(=O)[C@@]1(O)C[C@H]2O[C@]1(C)n1c3ccccc3c3c4c(c5c6ccccc6n2c5c31)C(=O)NC4 [K-252A]	–	> 30 µM (inactive)	> 30 µM (inactive)	> 30 µM (inactive)	> 30 µM (inactive)	> 30 µM (inactive)	> 30 µM (inactive)	> 30 µM (inactive)	> 30 µM (inactive)
